Test results: the supplement of paper PMC10307832

Experiments:
Experiment in all cases: relative viability (nuclei count vs DMSO), 5 days (fraction); higher = more cells survive
NCI-H2087 = system: NCI-H2087
Summary of the method: (§1)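 Nuclei were stained with Hoechst during a one-step fixation (final 0.05% Triton X-100, 1% formaldehyde, 1 ug/ml Hoechst) carried out 5 days after dosing, then counted on 4× images. The cells, lung cancer lines in 1536-well plates, had been dosed by pin tool the day after seeding with one drug alone or a fixed anchor-drug dose plus five library-drug doses (not always all listed) in √10 steps. Relative viability is the nuclei count in treated wells divided by that in vehicle wells, and each value is the median of duplicate plates.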

COR-L 105 = system: COR-L 105
Summary of the method: as §1

201T = system: 201T
Summary of the method: as §1

NCI-H1437 = system: NCI-H1437
Summary of the method: as §1

NCI-H2170 = system: NCI-H2170
Summary of the method: as §1

NCI-H647 = system: NCI-H647
Summary of the method: as §1

HCC-827 = system: HCC-827
Summary of the method: as §1

NCI-H1975 = system: NCI-H1975
Summary of the method: as §1

SW 1573 = system: SW 1573
Summary of the method: as §1

LOU-NH91 = system: LOU-NH91
Summary of the method: as §1

NCI-H2342 = system: NCI-H2342
Summary of the method: as §1

EPLC-272H = system: EPLC-272H
Summary of the method: as §1

PC-3 [JPC-3] = system: PC-3 [JPC-3]
Summary of the method: as §1

H3255 = system: H3255
Summary of the method: as §1

HCC-44 = system: HCC-44
Summary of the method: as §1

LU99A = system: LU99A
Summary of the method: as §1

EKVX = system: EKVX
Summary of the method: as §1

NCI-H1666 = system: NCI-H1666
Summary of the method: as §1

NCI-H2085 = system: NCI-H2085
Summary of the method: as §1

NCI-H650 = system: NCI-H650
Summary of the method: as §1

BEN = system: BEN
Summary of the method: as §1

LCLC-97TM1 = system: LCLC-97TM1
Summary of the method: as §1

`Cc1sc2c(c1C)C(c1ccc(Cl)cc1)=N[C@@H](CC(=O)OC(C)(C)C)c1nnc(C)n1-2` [JQ1] + CCNC(=O)c1noc(-c2cc(C(C)C)c(O)cc2O)c1-c1ccc(CN2CCOCC2)cc1 [Luminespib] (partner 0.01 µM) was tested, and the relative viability (NCI-H2087; first compound 0.04 µM) was 0.122, the relative viability (NCI-H2087; first compound 0.1265 µM) was 0.171 and the relative viability (NCI-H2087; first compound 0.4 µM) was 0.173. For the same molecule, the relative viability (NCI-H2087; first compound 1.265 µM) was 0.129, the relative viability (NCI-H2087; first compound 4 µM) was 0.178 and the relative viability (COR-L 105; first compound 0.04 µM) was 0.66. The relative viability (COR-L 105; first compound 0.1265 µM) was 0.49, the relative viability (COR-L 105; first compound 0.4 µM) was 0.369 and the relative viability (COR-L 105; first compound 1.265 µM) was 0.239. The relative viability (COR-L 105; first compound 4 µM) was 0.206, the relative viability (201T; first compound 0.04 µM) was 1.06 and the relative viability (201T; first compound 0.1265 µM) was 0.77. It also gave a relative viability (201T; first compound 0.4 µM) of 0.745, a relative viability (201T; first compound 1.265 µM) of 0.753 and a relative viability (201T; first compound 4 µM) of 0.522. For the same molecule, the relative viability (NCI-H1437; first compound 0.04 µM) was 1.1, the relative viability (NCI-H1437; first compound 0.1265 µM) was 1.09 and the relative viability (NCI-H1437; first compound 0.4 µM) was 1.11. It also gave a relative viability (NCI-H1437; first compound 1.265 µM) of 0.617, a relative viability (NCI-H1437; first compound 4 µM) of 0.393 and a relative viability (NCI-H2170; first compound 0.04 µM) of 0.743. It also gave a relative viability (NCI-H2170; first compound 0.1265 µM) of 0.837, a relative viability (NCI-H2170; first compound 0.4 µM) of 0.572 and a relative viability (NCI-H2170; first compound 1.265 µM) of 0.326. For the same molecule, the relative viability (NCI-H2170; first compound 4 µM) was 0.336, the relative viability (NCI-H647; first compound 0.04 µM) was 0.239 and the relative viability (NCI-H647; first compound 0.1265 µM) was 0.113. The relative viability (NCI-H647; first compound 0.4 µM) was 0.134, the relative viability (NCI-H647; first compound 1.265 µM) was 0.113 and the relative viability (NCI-H647; first compound 4 µM) was 0.073. For the same molecule, the relative viability (HCC-827; first compound 0.04 µM) was 0.887, the relative viability (HCC-827; first compound 0.4 µM) was 0.424 and the relative viability (HCC-827; first compound 1.265 µM) was 0.624. For the same molecule, the relative viability (HCC-827; first compound 4 µM) was 0.59, the relative viability (NCI-H1975; first compound 0.04 µM) was 0.212 and the relative viability (NCI-H1975; first compound 0.1265 µM) was 0.137. The relative viability (NCI-H1975; first compound 0.4 µM) was 0.162, the relative viability (NCI-H1975; first compound 1.265 µM) was 0.206 and the relative viability (NCI-H1975; first compound 4 µM) was 0.172. For the same molecule, the relative viability (SW 1573; first compound 0.04 µM) was 0.249, the relative viability (SW 1573; first compound 0.1265 µM) was 0.182 and the relative viability (SW 1573; first compound 0.4 µM) was 0.195. It also gave a relative viability (SW 1573; first compound 1.265 µM) of 0.0871, a relative viability (SW 1573; first compound 4 µM) of 0.0908 and a relative viability (LOU-NH91; first compound 0.04 µM) of 0.371. The relative viability (LOU-NH91; first compound 0.1265 µM) was 0.371, the relative viability (LOU-NH91; first compound 0.4 µM) was 0.31 and the relative viability (LOU-NH91; first compound 1.265 µM) was 0.285. For the same molecule, the relative viability (LOU-NH91; first compound 4 µM) was 0.271, the relative viability (NCI-H2342; first compound 0.04 µM) was 0.633 and the relative viability (NCI-H2342; first compound 0.1265 µM) was 0.569. The relative viability (NCI-H2342; first compound 0.4 µM) was 0.8, the relative viability (NCI-H2342; first compound 1.265 µM) was 0.739 and the relative viability (NCI-H2342; first compound 4 µM) was 0.539. The relative viability (EPLC-272H; first compound 0.04 µM) was 0.451, the relative viability (EPLC-272H; first compound 0.1265 µM) was 0.332 and the relative viability (EPLC-272H; first compound 0.4 µM) was 0.238. For the same molecule, the relative viability (EPLC-272H; first compound 1.265 µM) was 0.179, the relative viability (EPLC-272H; first compound 4 µM) was 0.189 and the relative viability (PC-3 [JPC-3]; first compound 0.04 µM) was 0.82. For the same molecule, the relative viability (PC-3 [JPC-3]; first compound 0.1265 µM) was 0.716, the relative viability (PC-3 [JPC-3]; first compound 0.4 µM) was 0.614 and the relative viability (PC-3 [JPC-3]; first compound 1.265 µM) was 0.443. For the same molecule, the relative viability (PC-3 [JPC-3]; first compound 4 µM) was 0.302, the relative viability (H3255; first compound 0.04 µM) was 0.904 and the relative viability (H3255; first compound 0.1265 µM) was 0.699. The relative viability (H3255; first compound 0.4 µM) was 1.01, the relative viability (H3255; first compound 1.265 µM) was 0.768 and the relative viability (H3255; first compound 4 µM) was 0.416. It also gave a relative viability (HCC-44; first compound 0.04 µM) of 0.968, a relative viability (HCC-44; first compound 0.1265 µM) of 0.433 and a relative viability (HCC-44; first compound 0.4 µM) of 0.551. The relative viability (HCC-44; first compound 1.265 µM) was 0.388, the relative viability (HCC-44; first compound 4 µM) was 0.153 and the relative viability (LU99A; first compound 0.04 µM) was 0.285. It also gave a relative viability (LU99A; first compound 0.1265 µM) of 0.246, a relative viability (LU99A; first compound 0.4 µM) of 0.266 and a relative viability (LU99A; first compound 1.265 µM) of 0.173. It also gave a relative viability (LU99A; first compound 4 µM) of 0.179, a relative viability (EKVX; first compound 0.04 µM) of 0.832 and a relative viability (EKVX; first compound 0.1265 µM) of 0.877. It also gave a relative viability (EKVX; first compound 0.4 µM) of 0.895, a relative viability (EKVX; first compound 1.265 µM) of 0.824 and a relative viability (EKVX; first compound 4 µM) of 0.572. It also gave a relative viability (NCI-H1666; first compound 0.04 µM) of 1.03, a relative viability (NCI-H1666; first compound 0.1265 µM) of 0.916 and a relative viability (NCI-H1666; first compound 0.4 µM) of 0.908. The relative viability (NCI-H1666; first compound 1.265 µM) was 0.669, the relative viability (NCI-H1666; first compound 4 µM) was 0.64 and the relative viability (NCI-H2085; first compound 0.04 µM) was 0.387. The relative viability (NCI-H2085; first compound 0.1265 µM) was 0.434, the relative viability (NCI-H2085; first compound 0.4 µM) was 0.386 and the relative viability (NCI-H2085; first compound 1.265 µM) was 0.248. It also gave a relative viability (NCI-H2085; first compound 4 µM) of 0.182, a relative viability (NCI-H650; first compound 0.04 µM) of 0.743 and a relative viability (NCI-H650; first compound 0.1265 µM) of 0.7. For the same molecule, the relative viability (NCI-H650; first compound 0.4 µM) was 0.546, the relative viability (NCI-H650; first compound 1.265 µM) was 0.203 and the relative viability (NCI-H650; first compound 4 µM) was 0.212. For the same molecule, the relative viability (BEN; first compound 0.04 µM) was 0.259, the relative viability (BEN; first compound 0.1265 µM) was 0.329 and the relative viability (BEN; first compound 0.4 µM) was 0.379. It also gave a relative viability (BEN; first compound 1.265 µM) of 0.126, a relative viability (BEN; first compound 4 µM) of 0.169 and a relative viability (LCLC-97TM1; first compound 0.04 µM) of 0.81. For the same molecule, the relative viability (LCLC-97TM1; first compound 0.1265 µM) was 0.762, the relative viability (LCLC-97TM1; first compound 0.4 µM) was 0.768 and the relative viability (LCLC-97TM1; first compound 1.265 µM) was 0.356. It also gave a relative viability (LCLC-97TM1; first compound 4 µM) of 0.3.
